# Experiments:
# BKCaK+ channels = experiment: BKCa K+ channel activity in Xenopus oocytes, two-electrode voltage clamp; type: cell-based; details: 2-APB 100 μM, BAPTA-AM, PMA 1 μM; for effect on gintonin-induced BKCaK+ channel activation: Kil6425 10 μM, U73122, U73343 1 μM; for effect on ginsenoside Rg3-induced BKCaK+ channel activity: U73122 1 μM
# Procedure: (§1) Xenopus laevis frogs were obtained from Xenopus I (Ann Arbor, Mich.). Their care and handling were in accordance with the highest standards of institutional guidelines. To isolate oocytes, the frogs were operated on under anesthesia with an aerated solution of 3-aminobenzoic acid ethyl ester. Oocytes were separated by treatment with collagenase and agitation for two hours in a Ca^2+-free medium containing 82.5 mM NaCl, 2 mM KCl, 1 mM MgCl2, 5 mM HEPES, 2.5 mM sodium pyruvate, 100 units/ml penicillin and 100 μg/ml streptomycin.
# (§2) Stage V-VI oocytes were collected and stored in ND96 (96 mM NaCl, 2 mM KCl, 1 mM MgCl2, 1.8 mM CaCl2, and 5 mM HEPES, pH 7.4) supplemented with 50 μg/ml gentamicin. This oocyte containing solution was maintained at 18° C. with continuous gentle shaking while the ND96 medium was changed with a fresh one every day.
# Two-electrode voltage-clamp recordings were obtained from individual oocytes placed in a small Plexiglas net chamber (5 ml). Electrophysiological experiments were performed using microelectrodes filled with 3 M KCl (resistance of 0.2-0.7 MΩ) and an Oocyte Clamp amplifier (OC-725C; Warner Instrument, CT, USA) to record BKc K^+ channel activity at room temperature (Choi et al., Mol Cells 31, 133-140, 2011). For physiological recordings of BKCaK^+ channel activity, oocytes were first perfused with a Cl^−- and Ca^2+-free solution (mM: 96 NaOH, 2 KOH, 8 Mg-gluconate, 5 HEPES, 5 EGTA, pH 7.4 with methanesulfonic acid) supplemented with 500 μM anthracene-9-carboxylic acid, a Cl^− channel blocker, to block endogenous Cl-channels (Lu et al., J. Biol. Chem. 265, 16190-16194.1990). Then, the oocytes were clamped at −80 mV holding potential, followed by step depolarization from the holding potential to +40 mV at regular intervals of […] for 400 ms to record outward currents.
# LPA receptor = experiment: Gintonin-induced intracellular Ca2+ increase in LPA receptor-expressing B103 cells (subtype not named); type: cell-based, human; details: pretreated
# Description: Optionally, the method may further comprise (8) pre-treating the suspended B103 cells with LPA receptor antagonists and LPA receptor-mediated signaling-relevant drugs (e.g., pertussis toxin, PLC inhibitors, IP3 receptor antagonists) to examine whether the cells decrease or increase in intracellular free Ca^2+, prior to treatment with gintonin; (9) performing site-directed mutagenesis to identify an amino acid of LPA receptors with which gintonin interact to activate the LPA; and (10) examining whether gintonin activates orphan GPCRs including GPR35 and GPR87, and free fatty acid GPCRs including GPR40, GPR41, GPR43 and GPR120, all known for activation by LPA.
# In this Example, gintonin, or ginsenoside Rb1 or Rg1 was examined for its ability to induce a transient increase of [Ca^2+]i in Fura-2AM-loaded B103 cells which were transfected with LPA receptors and in Fura-2AM-loaded B103 cells which were not transfected with LPA receptors. […]
# (§3) Briefly, Fura 2-AM loaded cells were diluted with an experimental medium to a final density of 2˜4×10^6 cells/mL, and transferred to polystyrene cuvettes (Elkay Ultra-VU). […] Emission was detected at 510 nm Excitation and emission slit widths were 5 nm Background calibration was performed as described by Jørgensen et al.
# [1] = tested on: NMDA receptors (NR1 and NR2); experiment: NMDA receptor activity in Xenopus oocytes, two-electrode voltage clamp; type: cell-based; details: Kil6425 10 μM, 2-APB 100 μM, BAPTA 100 μM 3 h
# Procedure: cDNAs of NMDA receptor subunits (NR1 and NR2) were employed (Zheng et al., J Neurosci. 17, 8676-8686, 1997). cDNAs (100 ng/40 nl) corresponding to respective NMDA receptor subunits (NR1 and NR2) were injected into animal or vegetal poles of oocytes by use of a […] (VWR Scientific, USA) and incubated for 4-5 days after injection (Zheng et al., J Neurosci. 17, 8676-8686, 1997).
# as §1
# as §2, with “changed to” for “changed with”
# Two-electrode voltage-clamp recordings were obtained from individual oocytes placed in a small Plexiglas net chamber (5 ml). Electrophysiological experiments were performed using microelectrodes filled with 3 M KCl (resistance of 0.2-0.7 MΩ) and an Oocyte Clamp amplifier (OC-725C; Warner Instrument, Hamden, Conn.). For physiological recordings of NMDA receptor activity, oocytes were first perfused with Mg^2+-free ND96 (mM: 96 NaOH, 2 KOH, 0.3 CaCl2, 5 HEPES pH 7.6 with methanesulfonic acid). Then, the oocytes were clamped at −60 mV holding potential, followed by recoding NMDA currents (induced by administering […]) (Zheng et al., J Neurosci. 17, 8676-8686, 1997; Chang and Kuo, J Neurosci. 28, 1546-1556, 2008).
# endogenous CaCC = experiment: Endogenous Ca2+-activated channel (CaCC) activation in Xenopus oocytes; type: cell-based, Xenopus laevis; details: Kil6425 10 μM; U73122 1 μM; 2-APB 100 μM; BAPTA 100 μM 3 h
# [2] = tested on: LPA receptor-null B103 cells (empty vector); experiment: Intracellular free Ca2+ (Fura-2AM) in B103 cells transfected with empty vector; type: cell-based, rat; details: B103 cells not expressing LPA3 receptor
# Description: LPA family receptors are endogenous to cells of most organs. B103 rat neuroblastoma cells, known as LPA receptor-null cells (Valentine et al., Biochim Biophys Acta 1780. 597-605) were transiently transfected with a plasmid (vector) carrying one of genes coding for LPA1(edg-2), LPA2(edg-4), LPA3(edg-7), LPA4, LPA5 and LPA6 receptors or a plasmid carrying none of them (empty vector). Two or three days after transfection, the cells are suspended, and made permeable. Then, the permeable cells are treated with Fura-2AM, a fluorescent dye binding to calcium, and then with gintonin, followed by spectrofluorephotometry to examine whether gintonin induces an increase in intracellular free Ca^2+ level. […]
# as §3, with “al. […]” for “al.”
# LPA3 receptor = biological target: T1, LPA3 receptor (Homo sapiens, UniProt Q9UBY5); experiment: Intracellular free Ca2+ (Fura-2AM) in LPA3-expressing B103 cells; type: cell-based; details: LPA3 receptor-expressing B103 cells; read-out: EC50, intracellular calcium increase
# T1 construct: host or cells: B103 rat neuroblastoma cells
# T1 sequence (Q9UBY5 1-353): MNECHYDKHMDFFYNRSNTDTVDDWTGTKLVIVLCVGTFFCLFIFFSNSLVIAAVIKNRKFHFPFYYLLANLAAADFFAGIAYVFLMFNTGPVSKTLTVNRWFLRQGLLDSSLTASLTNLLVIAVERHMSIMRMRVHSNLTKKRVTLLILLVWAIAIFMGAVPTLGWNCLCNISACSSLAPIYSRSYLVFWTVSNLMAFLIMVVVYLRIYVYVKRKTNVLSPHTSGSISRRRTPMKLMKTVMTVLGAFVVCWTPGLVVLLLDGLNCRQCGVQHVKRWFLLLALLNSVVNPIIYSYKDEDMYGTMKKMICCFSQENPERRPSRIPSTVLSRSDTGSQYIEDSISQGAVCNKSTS
# Description: LPA family receptors are endogenous to cells of most organs. B103 rat neuroblastoma cells, known as LPA receptor-null cells (Valentine et al., Biochim Biophys Acta 1780. 597-605) were transiently transfected with a plasmid (vector) carrying one of genes coding for LPA1(edg-2), LPA2(edg-4), LPA3(edg-7), LPA4, LPA5 and LPA6 receptors or a plasmid carrying none of them (empty vector). Two or three days after transfection, the cells are suspended, and made permeable. Then, the permeable cells are treated with Fura-2AM, a fluorescent dye binding to calcium, and then with gintonin, followed by spectrofluorephotometry to examine whether gintonin induces an increase in intracellular free Ca^2+ level.
# (1) preparing large quantities of plasmids carrying respective LPA family receptor genes and an empty plasmid carrying none of them through amplification and purification (maxi-preparation); (2) verifying the expression of LPA receptors wherein B103 cells are transfected with haematoglutin (HA)-tagged LPA receptors, and then subjected to Western blotting analysis using an anti-HA primary antibody and a horseradish peroxidase (HRP)-conjugated secondary antibody to develop a color; (3) verifying the expression of LPA receptors wherein B1-3 cells are transfected with haematoglutin (HA)-tagged LPA receptors, and then subjected to confocal laser microscopy using an anti-HA antibody and a fluorescence dye Cy3-conjugated secondary antibody; (4) transfecting the empty plasmid and each of the plasmids carrying LPA family receptor genes into B103 cells; (5) treating the transfected B103 cells with trypsin (0.05% trypsin with EDTA, w/v) 2-3 days post-transfection, to give a cell suspension; (6) culturing the suspended B103 cells with Fura-2AM (2.5 μM); and (7) treating the suspended B103 cells with gintonin and quantifying a change in intracellular free Ca^2+ level in a cuvette by spectrofluorephotometry using Fura-2AM.
# Human LPA (lysophosphatidic acid) receptor subtypes, orphan GPCRs (G protein coupled receptors) and plasmids carrying GPCRs were purchased from Missouri S&T resource Center (www.cDNA.org).
# The transient transfection of LPA receptor subtypes was carried out with the aid of Lipofectamine 2000 of Invitrogen. A plasmid (10.8 μg) carrying each LPA receptor (LPA1, LPA2, LPA3, LPA4, LPA5, and LPA6) was transfected into B103 cells grown in 10-cm dishes, and incubated for 2 days prior for use in experiments.
# In this Example, gintonin, or ginsenoside Rb1 or Rg1 was examined for its ability to induce a transient increase of [Ca^2+]i in Fura-2AM-loaded B103 cells which were transfected with LPA receptors and in Fura-2AM-loaded B103 cells which were not transfected with LPA receptors. To this end, B103 cells (2˜4×10^6/ml) pre-treated with Fura-2AM were suspended in a 1.5 mM Ca^2+-containing buffer or Ca^2+-free buffer, and incubated 37° C. for 30 min, followed by analyzing intracellular calcium levels in the B103 cells in the presence of gintonin or ginsenosides.
# Briefly, B103 cells (1˜2×10^6/ml) were mixed with 2.5 μM Fura 2-AM in a Ca^2+ buffer (pH 7.4) containing NaCl 120 mM, KCl 5 mM, MgCl2 1 mM, CaCl2 1.5 mM, glucose 10 mM, and HEPES 25 mM, and a Ca^2+ free buffer (pH 7.4) containing NaCl 120 mM, KCl 5 mM, MgCl2 1 mM, EGTA 0.2 mM, glucose 10 mM, and HEPES 25 mM at 37° C. for 30 min in water bath with shaking according to the Jørgensen method, and washed three times with Ca^2+ buffer or Ca^2+ free buffer to remove excess Fura-2AM.
# [Ca^2+]i was estimated in Fura 2AM-loaded cells in suspension using an RF-5300PC intracellular ion measurement system (Shimadzu Corporation, Japan).
# Briefly, Fura 2-AM loaded cells were diluted with an experimental medium to a final density of 2˜4×10^6 cells/mL, and transferred to polystyrene cuvettes (Elkay Ultra-VU). The cells were stirred using Teflon-coated magnets, and the cuvette housing was thermostatically controlled at 37° C. The excitation wavelengths were alternated between 340 and 380 nm under computer control. […]
EC50 (LPA3 receptor),Molecule,effect on gintonin-induced BKCaK+ channel activation (BKCaK+ channels),effect on ginsenoside Rg3-induced BKCaK+ channel activity (BKCaK+ channels),effect of pretreatment on gintonin-induced intracellular calcium increase (LPA receptor),effect on NMDA-induced inward current ([1]; U73122 1 μM),"effect on gintonin-induced NMDA receptor activation ([1]; gintonin 1 μg/ml, U73122, U73343 1 μM, genistein 10 μM, PP2, PP3 30 μM)",effect on gintonin-induced CaCC activation (endogenous CaCC),increase of intracellular calcium level [2]
–,O=C(O)CN(CC(=O)O)c1ccccc1OCCOc1ccccc1N(CC(=O)O)CC(=O)O [BAPTA],a reduction in BKCaK^+ channel activation,not blocked,became invalid,normal NMDA-induced inward currents,reduction,a reduction in gintonin-induced CaCC activation,–
–,CCCCCCCCCCCCCC(=O)O[C@@H]1[C@@H](C)[C@@]2(O)[C@@H](C=C(CO)C[C@]3(O)C(=O)C(C)=C[C@@H]23)[C@@H]2C(C)(C)[C@]12OC(C)=O [PMA],caused the gintonin-induced activation of BKCaK^+ channels to disappear,had no influences on the activity of ginsenoside Rg3,blocked,–,–,–,–
58.9 ± 5.54 nM,"lysophosphatidic acid [LPA, reference compound]",–,–,–,–,–,–,did not induce the increase of intracellular calcium level

# From patent US20140234868A1, “USE FOR GLYCOLIPOPROTEIN GINTONIN, ISOLATED AND IDENTIFIED FROM GINSENG, AS A NATURAL MEDICAL-PLANT DERIVED LIGAND” (KONKUK UNIVERSITY INDUSTRIAL COOPERATION CORP., priority 2011, published 2014)
